Results as given in patent publication US10258606B2, “Endothelin single nucleotide polymorphisms and methods of predicting β-adrenergic receptor targeting agent efficacy” (The Regents of the University of Colorado, A Body Corporate, priority 2007, dated 2019).

Assays:
[1] = tested on: 1040 BEST DNA Bank subjects; settings: bucindolol treated subjects carrying the Arg-389 allele of the beta-1-adrenergic receptor (ADRB); cited from earlier work
[2] = tested on: subjects with idiopathic dilated cardiomyopathy; assay: BEST (Beta-Blocker Evaluation of Survival Trial) DNA substudy: time to event by endothelin gene system genotype, Cox proportional hazards model; assay type: in vivo, human; settings: for Event/number, first heart failure hospitalization or death: FIG. 1; for E, number of events / HR associated with each copy of allele A, allele dosage Cox model / HR associated with each copy of allele Asn, allele dosage Cox model: bucindolol arm; for HR associated with each copy of allele A, allele dosage Cox model: G/A (IVS-4); for HR associated with each copy of allele Asn, allele dosage Cox model: Lys198Asn
Excerpt: 309 subjects with idiopathic dilated cardiomyopathy were studied from the Beta-Blocker Evaluation of Survival Trial (BEST) (2001). BEST was a multicenter, randomized, prospective trial of patients with NYHA class III or IV heart failure and an ejection fraction <35% comparing mortality in adults treated with placebo or the non-selective β-blocker bucindolol. The BEST DNA bank, initiated in the study's second year, collected samples from 38% of the original participants. The inventors requested samples from idiopathic dilated cases, rather than the entire cohort, to ensure a more homogenous heart failure population. In particular, the inventors sought to avoid studying […] ischemic forms of heart failure where acquired macrovascular changes in arterial stiffness or tone could potentially mask or override inherent microvascular phenotypes mediated by variation in endothelin genes. Written informed consent was obtained from each participant and all DNA was coded to maintain confidentiality. The genotyping project was approved by the BEST DNA Bank Oversight Committee and by the Colorado Multiple Institutional Review Board
Time to each of two endpoints was examined: all cause death and a combined endpoint comprised of first heart failure hospitalization or all cause death, using the Cox proportional hazards model. Genotype was treated a priori as a continuous variable, consistent with an allele dosage effect. Analyses were conducted using R and SAS. Primary analyses consisted of separate tests of a main genotype effect on time to event for each SNP within each treatment arm: placebo (N=159) and bucindolol (N=150). Secondary analyses, in the combined sample (N=309), consisted of tests of a genotype-treatment pharmacogenetic interaction and of a main genotype effect independent of treatment arm. Secondary analyses, comprised of interaction tests and estimation of within-genotype bucindolol:placebo hazard ratios, were also performed. Ethnicity was not included as a factor in initial Cox models, because of the relatively small sample. However, post-hoc analyses (within ethnic group, and including ethnicity-genotype interactions) were used to explore whether initial results were due to unaccounted for ethnic stratification. Linkage disequilibrium was assessed by taking the R^2 value (squared correlation) of the genotypes (coded as 0, 1 or 2) between two SNPs.
To account for the large number of simultaneous tests, adjusted p-values obtained from a multiple-testing permutation procedure are reported (Westfall and Young, 1993). Based on the actual data set, 5000 random data sets were generated by randomly permuting the time to event data relative to the genotype data, separately for patients on placebo and for patients on bucindolol. […] Adjusted p-values for interaction tests are based on 18 tests (2 outcomes×9 SNPs).
Cox model analysis was also used to examine a variety of more complicated models, and to describe the quantify the effects of bucindolol in terms of bucindolol:placebo hazard ratios, within genotype. Kaplan-Meier plots and log-rank tests were also examined. All p-values were based on two-sided tests. The statistical analysis was performed at the Veterans Affairs Cooperative Studies Program DNA Bank Coordinating Center.

[3] = combined endpoint, Non-Hispanic Blacks
[4] = combined endpoint, Non-Hispanic Whites

In the case of `CC(C)(Cc1c[nH]c2ccccc12)NCC(O)COc1ccccc1C#N` (centres unmarked) [Bucindolol, bucindolol], the all-cause mortality [1] is given as “reduced all-cause mortality”, the “Event/number, first heart failure hospitalization or death” value ([2]; IVS-4 G/A common homozygotes) is given as 21/84 and the “Event/number, first heart failure hospitalization or death” value ([2]; IVS-4 G/A heterozygotes) is given as 21/58. For the same compound, the “Event/number, first heart failure hospitalization or death” value ([2]; IVS-4 G/A rare homozygotes) was 7/8, the “Event/number, first heart failure hospitalization or death” value ([2]; Lys198Asn common homozygotes) was 22/87 and the “Event/number, first heart failure hospitalization or death” value ([2]; Lys198Asn heterozygotes) was 20/55. The “Event/number, first heart failure hospitalization or death” value ([2]; Lys198Asn rare homozygotes) was 7/8, the “E, number of events” value ([2]; combined endpoint, G/A (IVS-4) analysis, All (N 150)) was 49 and the “E, number of events” value ([2]; combined endpoint, G/A (IVS-4) analysis, Non-Hispanic Blacks (N 38)) was 16. The “E, number of events” value ([2]; combined endpoint, G/A (IVS-4) analysis, Non-Hispanic Whites (N 100)) was 27, the “HR associated with each copy of allele A, allele dosage Cox model” value ([2]; combined endpoint, All) was 2.2 and the “HR associated with each copy of allele A, allele dosage Cox model” value [2, 3] was 1.58. For the same compound, the “HR associated with each copy of allele A, allele dosage Cox model” value [2, 4] was 1.9, the “E, number of events” value ([2]; combined endpoint, Lys198Asn analysis, All (N 150)) was 49 and the “E, number of events” value ([2]; combined endpoint, Lys198Asn analysis, Non-Hispanic Blacks (N 38)) was 16. For the same compound, the “E, number of events” value ([2]; combined endpoint, Lys198Asn analysis, Non-Hispanic Whites (N 100)) was 27, the “HR associated with each copy of allele Asn, allele dosage Cox model” value ([2]; combined endpoint, All) was 2.0 and the “HR associated with each copy of allele Asn, allele dosage Cox model” value [2, 3] was 1.5. For the same compound, the “HR associated with each copy of allele Asn, allele dosage Cox model” value [2, 4] was 1.9, the “Hazard ratio for bucindolol versus placebo” value (shortened to “Hazard ratio”) ([2]; combined endpoint (first heart failure hospitalization or all cause mortality), EDN1 G/A (IVS-4) genotype GG) was 0.5 and the “Hazard ratio” value ([2]; combined endpoint, EDN1 G/A (IVS-4) genotype AA) was 3.2. For the same compound, the “Hazard ratio” value ([2]; combined endpoint, EDN1 G/A (IVS-4) genotype GA) was 1.1, the “Hazard ratio” value ([2]; combined endpoint, EDN1 Lys198Asn genotype Asn/Asn) was 2.5 and the “Hazard ratio” value ([2]; combined endpoint, EDN1 Lys198Asn genotype Lys/Asn) was 1.1. For the same compound, the “Hazard ratio” value ([2]; combined endpoint, EDN1 Lys198Asn genotype Lys/Lys) was 0.5, the “apparent effect of bucindolol on combined endpoint” value (“apparent effect of bucindolol” for short) ([2]; common homozygotes (statistically significant)) was “beneficial effect” and the “apparent effect of bucindolol” value ([2]; heterozygotes) was “neutral effect”. The “apparent effect of bucindolol” value ([2]; rare homozygotes) was “harmful effect” and the “combined endpoint hazard rate on bucindolol relative to placebo” value ([2]; the 5.5% of subjects homozygous for the rare complementary haplotype) was “almost three times greater”.
